In patent publication US20260184710A1, “CASITAS B-LINEAGE LYMPHOMA PROTOONCOGENE B (CBL-B) DEGRADING COMPOUNDS AND ASSOCIATED METHODS OF USE” (Arvinas Operations, Inc., priority 2022, published 2026):

Biological target: T1, Cbl-b (Homo sapiens, UniProt Q13191)
T1 construct: Cbl-b-HiBit KI Jurkat Cells were purchased from Promega; host or cells: Cbl-b-HiBiT knock-in Jurkat cells
Assay: Cbl-b Degradation Method A (FACS, anti-Cbl-b antibody staining)
Format: cell-based
Conditions: Cbl-b-HiBit KI Jurkat Cells, incubated at least 20 hours; for DC50: half maximal degradation, read-out: Cbl-b Degredation Method A IC50; for Dmax: Jurkat, maximum degradation observed, read-out: Cbl-b Degredation Method A Dmax (%)
Experimental: Cbl-b Degradation Method A
Cbl-b-HiBit KI Jurkat Cells were purchased from Promega, and cell media consisted of RPMI 1640 with 10% FBS and 1% pen/strep. The cells were counted, measured for viability, and 100 μL of the cell solution was into 96 well flat bottom plates at a ratio of 290,000 cells per 100 μL. Compounds were dissolved in DMSO to make a 10 mM stock solution, which was diluted with cell media. 100 μL of the diluted compound mixture was added to the wells. The plate was incubated for at least 20 hours at 37° C. and 5% CO2. After incubation, the plate was shaken at 700-750 RMP for 15-30 minutes to ensure cells were removed from the wells. The wells were transferred to a 96-well v-bottom plate and spun for 2200 RPM for 3 minutes. The supernatant was removed, cells re-suspended in 100 μL of the fixative, and subsequently incubated at room temperature for 15 minutes. Afterwards, 150 μL of DPBS was added to each well, and the cells were centrifuged at 2500 RPM for 3 minutes. The supernatant was removed and the plate was chilled on ice for 2-3 minutes. While still on the ice, 100 μL of Perm III was added to each well, the wells mixed, and subsequently left on the ice for another 15 minutes. Afterwards, the plate was removed from the ice, 150 μL of DBPS was added to each well, and the cells centrifuged at 2700 RPM for 3 minutes. The supernatant was removed, and an additional 200 μL of was DPBS was added to each well, followed by centrifuging at 2700 RPM for 3 minutes, after which the supernatant was removed. The anti-Cbl-b antibody was diluted 1:200 in 1× Perm Wash buffer and 50 μL of the antibody mixture was added to each well and mixed. After addition, the plate was incubated for 35-45 minutes at room temperature. After incubation, 200 μL of DPBS was added to each wells, and the plate centrifuged at 2700 RPM for 3 minutes, followed by the removal of the supernatant. The washing step was repeated by adding 200 μL of DPBS to each wells followed by centrifuge at 2700 RPM for 3 minutes and removal of the supernatant. The a-Rabbit-AF488 antibody was diluted 1:1000 in Perm Wash buffer, 50 μL of the dilution added to each well, and mixed. After mixing, the plate was incubated for 30 minutes at room temperature in the dark. Subsequently, the supernatant was removed, and 200 μL of DBPS added to the cells, which were then centrifuged at 2900 RPM for 4 minutes. The supernatant was removed, and an additional 95 μL of DBPS was added to the wells and mixed. The cells were then transferred to a round bottom polypropylene plate and analyzed using FACS with the parameters below:
The concentration of an exemplary compound that leads to half maximal degradation (DC50) as well as the maximum degradation observed (Dmax, conventionally expressed as a percentage of control) is shown below in Table 2.

T1 sequence (Q13191 whole entry): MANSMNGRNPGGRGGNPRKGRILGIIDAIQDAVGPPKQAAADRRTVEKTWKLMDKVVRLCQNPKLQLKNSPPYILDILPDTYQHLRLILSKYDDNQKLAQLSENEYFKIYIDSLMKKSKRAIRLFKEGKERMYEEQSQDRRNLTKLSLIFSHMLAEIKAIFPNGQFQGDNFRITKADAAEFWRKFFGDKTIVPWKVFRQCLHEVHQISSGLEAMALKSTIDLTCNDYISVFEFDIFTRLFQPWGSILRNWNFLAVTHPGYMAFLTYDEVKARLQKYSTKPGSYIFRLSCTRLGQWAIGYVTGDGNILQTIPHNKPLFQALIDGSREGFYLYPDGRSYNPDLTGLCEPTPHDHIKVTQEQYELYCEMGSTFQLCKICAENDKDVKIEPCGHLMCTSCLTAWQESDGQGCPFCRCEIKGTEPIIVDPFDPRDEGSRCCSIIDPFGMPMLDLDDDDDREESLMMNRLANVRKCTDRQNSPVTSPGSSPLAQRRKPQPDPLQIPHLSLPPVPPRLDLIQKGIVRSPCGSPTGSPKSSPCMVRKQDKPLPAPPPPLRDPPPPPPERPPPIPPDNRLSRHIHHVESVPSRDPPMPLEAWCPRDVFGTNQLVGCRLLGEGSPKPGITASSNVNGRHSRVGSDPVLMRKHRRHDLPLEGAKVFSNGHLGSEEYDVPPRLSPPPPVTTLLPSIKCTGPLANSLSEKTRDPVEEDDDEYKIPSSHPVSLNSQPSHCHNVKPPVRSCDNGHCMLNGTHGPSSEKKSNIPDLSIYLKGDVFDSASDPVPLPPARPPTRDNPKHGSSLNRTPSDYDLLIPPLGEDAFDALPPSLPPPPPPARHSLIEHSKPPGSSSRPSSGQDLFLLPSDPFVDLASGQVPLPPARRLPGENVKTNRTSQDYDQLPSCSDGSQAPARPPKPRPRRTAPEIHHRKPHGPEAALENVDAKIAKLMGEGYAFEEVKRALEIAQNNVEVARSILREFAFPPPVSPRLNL

`Cn1cnnc1CC1(c2cccc(N3Cc4c(cc(CN5CCCC(N6CCC(CN7CCC(CN8CCN(c9ccc%10c(c9)C(=O)N(C9CCC(=O)NC9=O)C%10=O)CC8)CC7)CC6)C5)cc4C(F)(F)F)C3=O)c2)COC1` (centres unmarked) [Example 109, 2-(2,6-dioxopiperidin-3-yl)-5-[4-({1-[(1′-{[2-(3-{3-[(4-methyl-4H-1,2,4-triazol-3-yl)methyl]oxetan-3-yl}phenyl)-3-oxo-7-(trifluoromethyl)-2,3-dihydro-1H-isoindol-5-yl]methyl}-[1,3′-bipiperidin]-4-yl)methyl]piperidin-4-yl}methyl)piperazin-1-yl]-2,3-dihydro-1H-isoindole-1,3-dione] was tested, and the DC50 was less than 5 nM and the Dmax was greater than 70%.
With `Cn1cnnc1CC1(c2cccc(N3Cc4c(cc(CN5CC6(CCN(CC7CCN(c8ccc9c(c8F)CN(C8CCC(=O)NC8=O)C9=O)CC7)CC6)C5)cc4C(F)(F)F)C3=O)c2)COC1` (centres unmarked) [Example 25, 3-(4-fluoro-5-{4-[(2-{[2-(3-{3-[(4-methyl-4H-1,2,4-triazol-3-yl)methyl]oxetan-3-yl}phenyl)-3-oxo-7-(trifluoromethyl)-2,3-dihydro-1H-isoindol-5-yl]methyl}-2,7-diazaspiro[3.5]nonan-7-yl)methyl]piperidin-1-yl}-1-oxo-2,3-dihydro-1H-isoindol-2-yl)piperidine-2,6-dione] the DC50 was 5 to 50 nM and the Dmax was less than 35%.
Compound `Cn1cnnc1CC1(c2cccc(N3Cc4c(cc(N5CC6(CCN(C[C@H]7CC[C@H](OC8CCN(c9ccc%10c(c9Cl)CN(C9CCC(=O)NC9=O)C%10=O)CC8)CC7)CC6)C5)cc4C(F)(F)F)C3=O)c2)COC1` (some centres unmarked) [Example 184, 3-[4-chloro-1-oxo-5-(4-{[(1r,4r)-4-({2-[2-(3-{3-[(4-methyl-4H-1,2,4-triazol-3-yl)methyl]oxetan-3-yl}phenyl)-3-oxo-7-(trifluoromethyl)-2,3-dihydro-1H-isoindol-5-yl]-2,7-diazaspiro[3.5]nonan-7-yl}methyl)cyclohexyl]oxy}piperidin-1-yl)-2,3-dihydro-1H-isoindol-2-yl]piperidine-2,6-dione] has a DC50 of less than 5 nM and a Dmax greater than 70%.
`Cn1cnnc1CC1(c2cccc(N3Cc4c(cc(CN5CC6(CCN(C[C@H]7CC[C@H](OC8CCN(c9ccc%10c(c9F)CN(C9CCC(=O)NC9=O)C%10=O)CC8)CC7)CC6)C5)cc4C(F)(F)F)C3=O)c2)COC1` (some centres unmarked) [Example 6, 3-[4-fluoro-1-oxo-5-(4-{[(1r, 4r)-4-[(2-{[2-(3-{3-[(4-methyl-4H-1,2,4-triazol-3-yl)methyl]oxetan-3-yl}phenyl)-3-oxo-7-(trifluoromethyl)-2,3-dihydro-1H-isoindol-5-yl]methyl}-2,7-diazaspiro[3.5]nonan-7-yl)methyl]cyclohexyl]oxy}piperidin-1-yl)-2,3-dihydro-1H-isoindol-2-yl]piperidine-2,6-dione] was tested, and the DC50 was less than 5 nM and the Dmax was greater than 70%.
Work on `Cn1cnnc1CC1(c2cccc(N3Cc4c(cc(N5CC6(CCN(C[C@H]7CC[C@H](OC8CCN(c9ccc%10c(c9F)CN(C9CCC(=O)NC9=O)C%10=O)CC8)CC7)CC6)C5)cc4C(F)(F)F)C3=O)c2)COC1` (some centres unmarked) [Example 7, 3-[4-fluoro-1-oxo-5-(4-{[(1r, 4r)-4-({2-[2-(3-{3-[(4-methyl-4H-1,2,4-triazol-3-yl)methyl]oxetan-3-yl}phenyl)-3-oxo-7-(trifluoromethyl)-2,3-dihydro-1H-isoindol-5-yl]-2,7-diazaspiro [3.5]nonan-7-yl}methyl)cyclohexyl]oxy}piperidin-1-yl)-2,3-dihydro-1H-isoindol-2-yl]piperidine-2,6-dione] yielded a DC50 of less than 5 nM and a Dmax greater than 70%.
`Cn1cnnc1CC1(c2cccc(N3Cc4c(cc(N5CC(CC6CN(c7ccc8c(c7)C(=O)N(C7CCC(=O)NC7=O)C8=O)C6)C5)cc4C(F)(F)F)C3=O)c2)COC1` (centres unmarked) [Example 120, 2-(2,6-dioxopiperidin-3-yl)-5-[3-({1-[2-(3-{3-[(4-methyl-4H-1,2,4-triazol-3-yl)methyl]oxetan-3-yl}phenyl)-3-oxo-7-(trifluoromethyl)-2,3-dihydro-1H-isoindol-5-yl]azetidin-3-yl}methyl)azetidin-1-yl]-2,3-dihydro-1H-isoindole-1,3-dione] showed a DC50 of 5 to 50 nM and a Dmax of 35 to 70%.
`Cc1cc(N2CCC(CN3CC4(C3)CN(C3=CC5C(=O)N(c6cccc([C@]7(Cc8nncn8C)C[C@@H](C#N)C7)c6)CC5C(C(F)(F)F)=C3)C4)CC2)c(F)c2c1C(=O)N(C1CCC(=O)NC1=O)C2` (some centres unmarked) [Example 189, (1r,3r)-3-(3-{6-[6-({1-[2-(2,6-dioxopiperidin-3-yl)-4-fluoro-7-methyl-1-oxo-2,3-dihydro-1H-isoindol-5-yl]piperidin-4-yl}methyl)-2,6-diazaspiro[3.3]heptan-2-yl]-1-oxo-4-(trifluoromethyl)-2,3,3a,7a-tetrahydro-1H-isoindol-2-yl}phenyl)-3-[(4-methyl-4H-1,2,4-triazol-3-yl)methyl]cyclobutane-1-carbonitrile] was tested, and the DC50 was 5 to 50 nM and the Dmax was 35 to 70%.
With `Cn1cnnc1CC1(c2cccc(N3Cc4c(cc(N5CC(CC6CCN(c7ccc8c(c7)C(=O)N(C7CCC(=O)NC7=O)C8=O)CC6)C5)cc4C(F)(F)F)C3=O)c2)COC1` (centres unmarked) [Example 133, 2-(2,6-dioxopiperidin-3-yl)-5-[4-({1-[2-(3-{3-[(4-methyl-4H-1,2,4-triazol-3-yl)methyl]oxetan-3-yl}phenyl)-3-oxo-7-(trifluoromethyl)-2,3-dihydro-1H-isoindol-5-yl]azetidin-3-yl}methyl)piperidin-1-yl]-2,3-dihydro-1H-isoindole-1,3-dione] the DC50 was 5 to 50 nM and the Dmax was greater than 70%.
`Cc1cc(N2CCC(O[C@H]3CC[C@H](CN4CCN(Cc5cc6c(c(C(F)(F)F)c5)CN(c5cccc(C7(Cc8nncn8C)CCC7)c5)C6=O)C(C)(C)C4)CC3)CC2)c(F)c2c1C(=O)N(C1CCC(=O)NC1=O)C2` (some centres unmarked) [Example 224, 3-[4-fluoro-7-methyl-1-oxo-5-(4-{[(1r,4r)-4-[(3,3-dimethyl-4-{[2-(3-{1-[(4-methyl-4H-1,2,4-triazol-3-yl)methyl]cyclobutyl}phenyl)-3-oxo-7-(trifluoromethyl)-2,3-dihydro-1H-isoindol-5-yl]methyl}piperazin-1-yl)methyl]cyclohexyl]oxy}piperidin-1-yl)-2,3-dihydro-1H-isoindol-2-yl]piperidine-2,6-dione] showed a DC50 of 5 to 50 nM and a Dmax greater than 70%.
`Cc1cc(N2CCC(O[C@H]3CC[C@H](CN4CCC5(CC4)CN(c4cc6c(c(C(F)(F)F)c4)CN(c4cccc([C@]7(Cc8nncn8C)C[C@@H](C#N)C7)c4)C6=O)C5)CC3)CC2)c(F)c2c1C(=O)N(C1CCC(=O)NC1=O)C2` (some centres unmarked) [Example 187, (1r,3r)-3-[(4-methyl-4H-1,2,4-triazol-3-yl)methyl]-3-{3-[1-oxo-6-(7-{[(1r,4r)-4-({1-[2-(2,6-dioxopiperidin-3-yl)-4-fluoro-7-methyl-1-oxo-2,3-dihydro-1H-isoindol-5-yl]piperidin-4-yl}oxy)cyclohexyl]methyl}-2,7-diazaspiro[3.5]nonan-2-yl)-4-(trifluoromethyl)-2,3-dihydro-1H-isoindol-2-yl]phenyl}cyclobutane-1-carbonitrile] was tested, and the DC50 was 5 to 50 nM and the Dmax was 35 to 70%.
